Here are results for two compounds from patent US8227510B2, “Combine use of pterostilbene and quercetin for the production of cancer treatment medicaments” (Universitat de Valencia, priority 2004, dated 2012).

Marks after values point to notes of the source that are not given here.

One assay concerns B16M-F10/Tet-Bcl-2. Briefly: Growth of hepatic metastases of B16M-F10/Tet-Bcl-2 in mice. The conditions noted are these: 20 mg/kg i.v. daily x10 days; for Volume of metastases: none 25 ± 6; for Density of metastases: none 29 ± 5. The class given is in vivo. How it is done: (§1) Hepatic metastases were induced by i.v. inoculations (portal vein), in anesthetized mice (Nembutal, 50 mg/kg i.p.), of 4×10^5 viable B16M-F10 cells suspended in 0.2 ml of DMEM. The mice were sacrificed by cervical dislocation 10 days after inoculation. The livers were fixed by immersion for 24 hours at 22° C. in 10% formaldehyde in PBS (pH 7.4), and were subsequently embedded in paraffin. The density of metastases (average number of foci/100 mm^3 of liver detected in fifteen sections of 10×10 mm^2 per liver) and the volume of metastases (average percentage of liver volume occupied by metastases) were determined as described previously (22).
This methodology makes it possible for the effect of PTER and QUER to be studied in vivo. For this purpose, mice were inoculated with B16M-F10 control cells or B16M-F10/Tet-Bcl-2 which overexpressed Bcl-2. Both subgroups of cells were cultivated beforehand in the absence or in the presence of t-PTER and QUER. B16M-F10 cells were cultivated for 72 hours. t-RESV (12 μM), t-PTER (40 μM), and QUER (20 μM) were added at 6, 30 and 54 hours of culture time, and were present in each case for just 60 minutes. Then they were removed from the culture flasks by washing (3 times with PBS) and the medium was renewed. The levels of Bcl-2 in the B16M-F10 control cells and cells treated with Tet-Bcl-2 were 24±5 and 105±14 units/mg of protein, respectively (n=5 in each case, P<0.01). The number of adhering cells shown in the table was calculated at 60 minutes postinjection (no significant differences were found when the measurements were effected at 30, 120, 180, 240 or 360 minutes postinjection, data not shown). The number of intact cells was calculated at 6 hours postinjection. The experimental microscopy data in vivo are mean values±SD corresponding to 4-5 different experiments. The growth of metastases in the liver was evaluated as stated in the corresponding section of the description, and in this case the mice were treated daily (×10 days) with t-PTER and/or QUER (20 mg/kg of body weight) administered i.v. (the data are mean values±SD corresponding to 25 mice per group). A similar method and equal number of mice per group were used for evaluating the survival of the carrier animals. The test of significance relates, in all the groups, to comparison between cases with PTER and/or QUER and cases without additions (*P<0.05 and **P<0.01), and to comparison between the B16M-F10/Tet-Bcl-2 cells with the B16M-F10 control cells (^+P<0.05, ^++P<0.01). […] This is the first time that the combined administration in vivo of natural polyphenols has induced inhibition of metastatic growth of a highly malignant tumor and an increase in the survival of the carrier.

For another assay, the system named is B16M-F10. Briefly: Survival of mice carrying B16M-F10 metastases. The class given is in vivo. As to conditions: for Survival of the carrier: B16M-F10, 20 mg/kg i.v. daily, none 13 ± 2. How it is done: as §1
This methodology makes it possible for the effect of PTER and QUER to be studied in vivo. For this purpose, mice were inoculated with B16M-F10 control cells or B16M-F10/Tet-Bcl-2 which overexpressed Bcl-2. Both subgroups of cells were cultivated beforehand in the absence or in the presence of t-PTER and QUER. B16M-F10 cells were cultivated for 72 hours. t-RESV (12 μM), t-PTER (40 μM), and QUER (20 μM) were added at 6, 30 and 54 hours of culture time, and were present in each case for just 60 minutes. Then they were removed from the culture flasks by washing (3 times with PBS) and the medium was renewed. The levels of Bcl-2 in the B16M-F10 control cells and cells treated with Tet-Bcl-2 were 24±5 and 105±14 units/mg of protein, respectively (n=5 in each case, P<0.01). The number of adhering cells shown in the table was calculated at 60 minutes postinjection (no significant differences were found when the measurements were effected at 30, 120, 180, 240 or 360 minutes postinjection, data not shown). The number of intact cells was calculated at 6 hours postinjection. […] The growth of metastases in the liver was evaluated as stated in the corresponding section of the description, and in this case the mice were treated daily (×10 days) with t-PTER and/or QUER (20 mg/kg of body weight) administered i.v. (the data are mean values±SD corresponding to 25 mice per group). […]

In assay [1] the test system is Bcl-2. Briefly: Intracellular levels of Bcl-2 in B16M-F10/Tet-Bcl-2 cells (enzyme immunoassay). It is filed as cell-based, mouse. As to conditions: same exposure, none 160 ± 25. From the text: (§2) The Tet-off gene expression system (Clontech, Palo Alto, Calif., USA) was used for inserting the mouse bcl-2 gene and transfecting the B16M-F10 cells, as described previously (26) and following the manufacturer's instructions. The protein Bcl-2 was quantified in the soluble cytosolic fraction by enzyme immunoassay (27) using a test based on a monoclonal antibody from Sigma (San Luis, Mo., USA) (a Bcl-2 unit was defined as the amount of Bcl-2 protein in 1000 non-transfected B16M-F10 cells).
(§3) This methodology makes it possible for the effect of PTER and QUER to be studied in vivo. For this purpose, mice were inoculated with B16M-F10 control cells or B16M-F10/Tet-Bcl-2 which overexpressed Bcl-2. […] The number of adhering cells shown in the table was calculated at 60 minutes postinjection (no significant differences were found when the measurements were effected at 30, 120, 180, 240 or 360 minutes postinjection, data not shown). The number of intact cells was calculated at 6 hours postinjection. […] The growth of metastases in the liver was evaluated as stated in the corresponding section of the description, and in this case the mice were treated daily (×10 days) with t-PTER and/or QUER (20 mg/kg of body weight) administered i.v. (the data are mean values±SD corresponding to 25 mice per group). […]

Assay [2] concerns Bcl-2. Briefly: Intracellular levels of Bcl-2 in B16M-F10 cells (enzyme immunoassay). It is filed as cell-based, mouse. The conditions noted are these: t-PTER 40 μM, QUER 20 μM, 60 minutes at 6, 30 and 54 hours, none 35 ± 5.
From the text: as §2, §3

Take `COc1cc(/C=C/c2ccc(O)cc2)cc(OC)c1` [PTER, pterostilbene]: in the assay on B16M-F10/Tet-Bcl-2, the Volume of metastases is given as 15 ± 3** percentage of liver volume and the Density of metastases is 15 ± 3** number of foci/100 mm^3. Moreover, the “Survival of the carrier” value in the assay with B16M-F10 is reported as 15 ± 2 days. Also, in the assay with Bcl-2 [1], the “Intracellular levels of Bcl-2 before inoculation” value (from here on “Intracellular levels”) was 151 ± 18^++ units/mg protein. Besides, in the assay on Bcl-2 [2], the “Intracellular levels” value was 21 ± 4** units/mg protein.
Take `O=c1c(O)c(-c2ccc(O)c(O)c2)oc2cc(O)cc(O)c12` [QUER, quercetin]: in the assay with B16M-F10/Tet-Bcl-2, the Volume of metastases is 24 ± 5^++ percentage of liver volume and the Density of metastases is on record as 26 ± 516^++ number of foci/100 mm^3. Also, in the assay with B16M-F10, the “Survival of the carrier” value is recorded as 15 ± 1 days. For the same compound, in the assay with B16M-F10 (B16M-F10 control cells, daily i.v. administration), the “effect on survival of the carrier host” value is given as “neither of these compounds significantly increased the survival”. Moreover, the “Intracellular levels” value in the assay on Bcl-2 [1] is listed as 125 ± 13*^++ units/mg protein. Moreover, the “Intracellular levels” value in the assay on Bcl-2 [2] is 9 ± 3** units/mg protein.
